Tests used:
Type in all cases: physicochemical
[1] = Evaluation of solid-state stability (60° C., four weeks, air-tightly); details: for Purity [%] Initial value / Purity [%] After 4 weeks: HPLC; for Purity [%] Initial value: before storage; for Purity [%] After 4 weeks / Decomposition product increased by not less than 0.15% after 4 weeks / Crystal form after 4 weeks: stored air-tightly at 60° C. for four weeks; for Crystal form after 4 weeks: powder X-ray diffraction and TG-DTA
Description: The amorphous form, and the crystals of Form A, Form B, Form C, Form D and Form E (hydrate) of the subject compound were stored air-tightly at 60° C. for four weeks, and the purities thereof before and after the storage were measured by high performance liquid chromatography (hereinafter referred to as “HPLC”) under the following conditions. The powder X-ray diffraction measurement and TG-DTA were carried out to evaluate whether the crystal forms were changed or not due to the storage. Aqueous sodium dihydrogen phosphate solution in a concentration of 20 mmol/L (hereinafter referred to as “aqueous SDP solution”) used to prepare a mobile phase of HPLC was prepared by adding distilled water (3 L) to weighed sodium dihydrogen phosphate dihydrate (9.36 g) and stirring the resulting solution to dissolve the dihydrate. An analytical sample of HPLC was prepared by weighing and adding each crystal (1.75 mg) of the subject compound to a 10-mL measuring flask respectively; adding acetonitrile (2 mL) thereto to dissolve the crystal; and then adding aqueous SDP solution thereto to a total volume of 10 mL.
• Detection Wavelength: 210 nm • Column: YMC-Pack Pro C18 AS-303 • Mobile Phase A: aqueous SDP solution/acetonitrile=80:20 (v/v) • Mobile Phase B: acetonitrile/aqueous SDP solution=70:30 (v/v) • Composition of Mobile Phase B: 0 to 60 minutes: 0→100% • 60 to 65 minutes: 100%, • 65 to 66 minutes: 100→0%, • 66 to 75 minutes: 0% • Flow rate: 1.0 mL/min • Column Temperature: 40° C. • Amount of Injected Sample: 20 μL

[2] = Evaluation of moisture absorption (equilibrium moisture regain); details: for Weight increase: relative humidity increased from 5% to 95%, 25° C.
Description: • Sample Amount: 5 to 12 mg • Measuring Temperature: 25° C. • Equilibrium Weight/time: 0.01 wt %/5 minutes • Maximum Equilibration Time: 180 minutes • Measurement Range: 5% relative humidity-95% relative humidity-5% relative humidity • Measurement Interval: 5% relative humidity
To evaluate whether the crystal form changes or not, the powder X-ray diffraction measurement was carried out for each crystal of Form A, Form B, Form C, Form D and Form E (hydrate) obtained after the evaluation test of moisture absorption. Only for the Form A crystal, the measurement range (2θ) of the powder X-ray diffraction measurement was changed to 2 to 35°, and the measurement was carried out at 25° C., 90% relative humidity. A humidity generator (HUM-1A; manufactured by Rigaku) was used to control humidity.

[3] = Storage stability test (accelerated testing) of Form C crystal; details: 40° C., 75% relative humidity; for Purity [%] Initial value: HPLC, before storage, 6 months column
Description: The Form C crystals of the subject compound were stored under acceleration conditions (40° C., 75% relative humidity) air-tightly or under open conditions for six months, and the purities of the crystals before and after the storage were measured by HPLC under conditions below. The powder X-ray diffraction measurement and TG-DTA were carried out to evaluate whether the crystal form was changed or not due to storage.
Phosphate buffer in a concentration of 20 mmol/L (pH 3.9) (hereinafter referred to as “Buffer X”) used to prepare a mobile phase of HPLC was prepared by adding 20 mmol/L of aqueous phosphoric acid solution to 20 mmol/L of aqueous potassium dihydrogen phosphate solution. 20 mmol/L of the aqueous potassium dihydrogen phosphate solution was prepared by adding the weighed potassium dihydrogen phosphate (8.2 g) to distilled water (3 L), and stirring the resulting solution to dissolve the phosphate, and 20 mmol/L of the aqueous phosphoric acid solution was prepared by adding phosphoric acid (1.4 mL) to distilled water (1 L), and mixing the resulting solution under stirring.
Phosphate buffer in a concentration of 20 mmol/L (pH 7.0) (hereinafter referred to as “Buffer Y”) used to prepare an analytical sample of HPLC was prepared by adding 20 mmol/L of aqueous phosphoric acid solution to 20 mmol/L of aqueous dipotassium hydrogen phosphate solution. 20 mmol/L of aqueous dipotassium hydrogen phosphate solution was prepared by adding the weighed dipotassium hydrogen phosphate (3.5 g) to distilled water (1 L), and stirring the resulting solution.
Further, the analytical sample of HPLC was prepared by weighing and adding the Form C crystals of the subject compound (10 mg) to a 50-mL measuring flask, and adding a mixture of Buffer Y and acetonitrile at a ratio of 80:20 to a total amount of 50 mL.
• Detection Wavelength: 210 nm • Column: YMC-Pack Pro C18 • AS12S05-2546WT • Mobile Phase A: buffer X/acetonitrile=80:20 (v/v) • Mobile Phase B: acetonitrile/buffer X=70:30 (v/v) • Composition of Mobile Phase B: 0 to 80 minutes: 0→100% • 80 to 85 minutes: 100% • 85 to 86 minutes: 100→0% • 86 to 95 minutes: 0% • Flow Rate: 1.0 mL/min • Column Temperature: 40° C. • Amount of Injected Sample: 20 μL

[4] = Physical stability of crystal form in solvents; details: solvents (e.g., toluene, methanol, 2-propanol)
[5] = Crystal form after milling (powder X-ray diffraction, TG-DTA); details: pin milled and jet milled products

Row | Purity [%] Initial value [1] | Purity [%] After 4 weeks [1] | Decomposition product increased by not less than 0.15% after 4 weeks [1] | Crystal form after 4 weeks [1] | Change in crystal form ([2]; powder X-ray diffraction after the moisture absorption test) | Weight increase [2] | Crystal form after 6 months ([3]; air-tightly) | Decomposition product increased by not less than 0.15% after 6 months ([3]; air-tightly) | Purity [%] After 6 months ([3]; air-tightly) | Crystal form after 6 months ([3]; open condition) | Decomposition product increased by not less than 0.15% after 6 months ([3]; open condition) | Purity [%] After 6 months ([3]; open condition) | Purity [%] Initial value ([3]; air-tightly) | Purity [%] Initial value ([3]; open condition) | Transfer of crystal form in solvents [4] | Change in the crystal form due to milling [5] | SMILES
1 | 95.8% | 92.0% | 8 different | Amorphous | – | – | – | – | – | – | – | – | – | – | – | – | CN(c1ccc(/C=C/C[C@H](NC(=O)c2c(Cl)cccc2Cl)C(=O)O)cc1)c1ncccn1 [Amorphous, (S,E)-2-(2,6-dichlorobenzamido)-5-[4-(methyl-pyrimidin-2-ylamino)phenyl]pent-4-enoic acid]
2 | 97.3% | 97.5% | nothing | Form B | changed^2) | 3.4% | – | – | – | – | – | – | – | – | – | – | CN(c1ccc(/C=C/C[C@H](NC(=O)c2c(Cl)cccc2Cl)C(=O)O)cc1)c1ncccn1 [Form A, (S,E)-2-(2,6-dichlorobenzamido)-5-[4-(methyl-pyrimidin-2-ylamino)phenyl]pent-4-enoic acid]
3 | 99.8% | 99.8% | nothing | Form B | – | 1.9% | – | – | – | – | – | – | – | – | – | – | CN(c1ccc(/C=C/C[C@H](NC(=O)c2c(Cl)cccc2Cl)C(=O)O)cc1)c1ncccn1 [Form B, (S,E)-2-(2,6-dichlorobenzamido)-5-[4-(methyl-pyrimidin-2-ylamino)phenyl]pent-4-enoic acid]
4 | 98.9% | 98.9% | nothing | Form C | – | – | Form C | Nothing | 99.5% | Form C | Nothing | 99.4% | 99.5% | 99.5% | not transferred to the another form | no change in the crystal form | CN(c1ccc(/C=C/C[C@H](NC(=O)c2c(Cl)cccc2Cl)C(=O)O)cc1)c1ncccn1 [Form C, (S,E)-2-(2,6-dichlorobenzamido)-5-[4-(methyl-pyrimidin-2-ylamino)phenyl]pent-4-enoic acid]
5 | 98.0% | 98.0% | nothing | Mixed crystals^2) | – | 1.0% | – | – | – | – | – | – | – | – | – | – | CN(c1ccc(/C=C/C[C@H](NC(=O)c2c(Cl)cccc2Cl)C(=O)O)cc1)c1ncccn1 [Form D, (S,E)-2-(2,6-dichlorobenzamido)-5-[4-(methyl-pyrimidin-2-ylamino)phenyl]pent-4-enoic acid]
6 | 96.6% | 96.9% | nothing | Form E | – | 0.4% | – | – | – | – | – | – | – | – | – | – | CN(c1ccc(/C=C/C[C@H](NC(=O)c2c(Cl)cccc2Cl)C(=O)O)cc1)c1ncccn1 [Form E, (S,E)-2-(2,6-dichlorobenzamido)-5-[4-(methyl-pyrimidin-2-ylamino)phenyl]pent-4-enoic acid]
